Experimental data taken from the kinase profiling compilation of Christmann-Franck et al. (2016).

Experiments:
Experiment in all cases: radiometric filter-binding kinase assay, Kinase HotSpot
Conditions in all cases: compound 0.5 µM; ATP 10 µM
PRKD1 (human) = PRKD1 (human) (UniProt Q15139)
EPHA5 (human) = EPHA5 (human) (UniProt P54756)
STK25 (human) = STK25 (human) (UniProt O00506)
PDGFRA (human) = PDGFRA (human) (UniProt P16234)
NEK3 (human) = NEK3 (human) (UniProt P51956)
ROS1 (human) = ROS1 (human) (UniProt P08922)
MAP3K8 (human) = MAP3K8 (human) (UniProt P41279)
MST4 (human) = MST4 (human) (UniProt Q9P289)
MST4 (human), sequence (Q9P289 whole entry, looked up): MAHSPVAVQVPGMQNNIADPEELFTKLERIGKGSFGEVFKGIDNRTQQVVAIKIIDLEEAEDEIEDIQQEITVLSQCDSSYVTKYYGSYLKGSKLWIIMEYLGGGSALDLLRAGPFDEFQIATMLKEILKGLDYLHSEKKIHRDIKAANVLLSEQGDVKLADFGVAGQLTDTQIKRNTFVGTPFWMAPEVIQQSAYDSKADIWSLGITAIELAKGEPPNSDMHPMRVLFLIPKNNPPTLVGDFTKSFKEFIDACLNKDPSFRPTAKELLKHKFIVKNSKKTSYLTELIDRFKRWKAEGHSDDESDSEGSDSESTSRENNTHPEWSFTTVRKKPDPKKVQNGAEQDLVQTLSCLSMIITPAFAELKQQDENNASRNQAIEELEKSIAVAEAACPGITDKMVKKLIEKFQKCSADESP

DYRK3 (human) = DYRK3 (human) (UniProt O43781)
MYLK2 (human) = MYLK2 (human) (UniProt Q9H1R3)
KIT (human) = KIT (human) (UniProt P10721)
EPHB2 (human) = EPHB2 (human) (UniProt P29323)
EPHB2 (human), sequence (P29323 whole entry, looked up): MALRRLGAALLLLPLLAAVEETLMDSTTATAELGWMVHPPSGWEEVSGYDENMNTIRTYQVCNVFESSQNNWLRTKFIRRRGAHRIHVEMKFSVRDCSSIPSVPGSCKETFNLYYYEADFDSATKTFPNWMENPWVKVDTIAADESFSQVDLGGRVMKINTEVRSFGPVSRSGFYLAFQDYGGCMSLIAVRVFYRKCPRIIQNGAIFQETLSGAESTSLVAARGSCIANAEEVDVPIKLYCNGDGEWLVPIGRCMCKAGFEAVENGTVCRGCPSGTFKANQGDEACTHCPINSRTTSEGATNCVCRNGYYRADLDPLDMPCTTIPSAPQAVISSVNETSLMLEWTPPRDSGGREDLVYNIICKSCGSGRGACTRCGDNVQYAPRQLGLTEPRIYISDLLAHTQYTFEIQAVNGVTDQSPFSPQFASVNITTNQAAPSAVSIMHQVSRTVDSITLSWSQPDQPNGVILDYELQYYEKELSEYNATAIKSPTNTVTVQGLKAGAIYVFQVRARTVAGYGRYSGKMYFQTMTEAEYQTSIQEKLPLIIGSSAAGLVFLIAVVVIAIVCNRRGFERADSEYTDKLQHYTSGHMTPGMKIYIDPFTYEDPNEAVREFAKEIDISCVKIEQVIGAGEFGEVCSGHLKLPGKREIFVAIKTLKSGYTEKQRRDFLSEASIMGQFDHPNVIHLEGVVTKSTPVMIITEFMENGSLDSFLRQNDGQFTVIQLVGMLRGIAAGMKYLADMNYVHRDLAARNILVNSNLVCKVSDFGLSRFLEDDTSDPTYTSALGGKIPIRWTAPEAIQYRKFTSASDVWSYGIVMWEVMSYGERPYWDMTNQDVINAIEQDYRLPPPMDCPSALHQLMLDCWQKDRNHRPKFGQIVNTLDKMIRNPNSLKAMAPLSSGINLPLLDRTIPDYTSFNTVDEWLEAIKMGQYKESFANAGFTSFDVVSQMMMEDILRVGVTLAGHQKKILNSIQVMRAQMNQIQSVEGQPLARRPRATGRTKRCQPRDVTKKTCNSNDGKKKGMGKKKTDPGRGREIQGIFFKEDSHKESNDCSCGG

NEK1 (human) = NEK1 (human) (UniProt Q96PY6)
MUSK (human) = MUSK (human) (UniProt O15146)
EPHA8 (human) = EPHA8 (human) (UniProt P29322)
EPHA8 (human), sequence (P29322 whole entry, looked up): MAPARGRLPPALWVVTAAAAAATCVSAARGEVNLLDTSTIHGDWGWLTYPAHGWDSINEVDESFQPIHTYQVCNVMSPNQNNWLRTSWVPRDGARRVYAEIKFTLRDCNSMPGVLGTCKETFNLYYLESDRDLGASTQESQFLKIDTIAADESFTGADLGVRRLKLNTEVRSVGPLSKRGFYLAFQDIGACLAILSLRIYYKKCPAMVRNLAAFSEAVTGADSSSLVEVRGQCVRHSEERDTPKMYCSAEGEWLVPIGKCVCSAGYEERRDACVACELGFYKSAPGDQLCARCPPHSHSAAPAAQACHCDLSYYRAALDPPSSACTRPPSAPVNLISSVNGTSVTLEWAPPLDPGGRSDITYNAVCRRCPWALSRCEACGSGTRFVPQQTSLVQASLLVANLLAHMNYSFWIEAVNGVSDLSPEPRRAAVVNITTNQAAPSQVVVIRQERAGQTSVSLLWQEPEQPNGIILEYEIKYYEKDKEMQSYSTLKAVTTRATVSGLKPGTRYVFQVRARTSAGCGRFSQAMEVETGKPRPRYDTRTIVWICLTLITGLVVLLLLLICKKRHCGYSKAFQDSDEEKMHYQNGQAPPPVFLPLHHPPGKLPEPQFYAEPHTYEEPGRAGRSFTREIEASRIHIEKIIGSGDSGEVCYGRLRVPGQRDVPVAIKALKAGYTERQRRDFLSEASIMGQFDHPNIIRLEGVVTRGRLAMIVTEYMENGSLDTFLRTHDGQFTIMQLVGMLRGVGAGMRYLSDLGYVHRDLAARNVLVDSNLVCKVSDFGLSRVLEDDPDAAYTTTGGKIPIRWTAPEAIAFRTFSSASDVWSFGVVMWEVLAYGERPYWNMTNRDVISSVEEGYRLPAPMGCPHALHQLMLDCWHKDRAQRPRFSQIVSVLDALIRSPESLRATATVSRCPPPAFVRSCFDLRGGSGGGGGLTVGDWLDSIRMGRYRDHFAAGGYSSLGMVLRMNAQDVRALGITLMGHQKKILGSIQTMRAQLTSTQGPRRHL

SGK2 (human) = SGK2 (human) (UniProt Q9HBY8)
SGK2 (human), sequence (Q9HBY8 whole entry, looked up): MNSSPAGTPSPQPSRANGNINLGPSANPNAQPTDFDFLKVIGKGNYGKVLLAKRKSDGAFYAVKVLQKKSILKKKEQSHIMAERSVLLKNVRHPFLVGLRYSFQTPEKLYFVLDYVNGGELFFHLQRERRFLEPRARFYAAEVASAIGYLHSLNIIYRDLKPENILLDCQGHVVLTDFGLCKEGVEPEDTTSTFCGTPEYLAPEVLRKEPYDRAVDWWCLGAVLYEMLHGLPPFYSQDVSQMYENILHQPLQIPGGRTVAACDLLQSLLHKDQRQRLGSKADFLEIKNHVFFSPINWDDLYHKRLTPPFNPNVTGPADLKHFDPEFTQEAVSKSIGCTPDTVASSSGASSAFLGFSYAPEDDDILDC

PTK2 (human) = PTK2 (human) (UniProt Q05397)
PRKCB1 (human) = PRKCB1 (human) (UniProt P05771)
PAK6 (human) = PAK6 (human) (UniProt Q9NQU5)
CDC42BPA (human) = CDC42BPA (human) (UniProt Q5VT25)
CDK5 CDK5R1 p25 (human) = CDK5 CDK5R1 p25 (human) (UniProt Q00535+Q15078)
GRK5 (human) = GRK5 (human) (UniProt P34947)
FER (human) = FER (human) (UniProt P16591)
INSRR (human) = INSRR (human) (UniProt P14616)
ULK1 (human) = ULK1 (human) (UniProt O75385)
CSF1R (human) = CSF1R (human) (UniProt P07333)
CSF1R (human), sequence (P07333 whole entry, looked up): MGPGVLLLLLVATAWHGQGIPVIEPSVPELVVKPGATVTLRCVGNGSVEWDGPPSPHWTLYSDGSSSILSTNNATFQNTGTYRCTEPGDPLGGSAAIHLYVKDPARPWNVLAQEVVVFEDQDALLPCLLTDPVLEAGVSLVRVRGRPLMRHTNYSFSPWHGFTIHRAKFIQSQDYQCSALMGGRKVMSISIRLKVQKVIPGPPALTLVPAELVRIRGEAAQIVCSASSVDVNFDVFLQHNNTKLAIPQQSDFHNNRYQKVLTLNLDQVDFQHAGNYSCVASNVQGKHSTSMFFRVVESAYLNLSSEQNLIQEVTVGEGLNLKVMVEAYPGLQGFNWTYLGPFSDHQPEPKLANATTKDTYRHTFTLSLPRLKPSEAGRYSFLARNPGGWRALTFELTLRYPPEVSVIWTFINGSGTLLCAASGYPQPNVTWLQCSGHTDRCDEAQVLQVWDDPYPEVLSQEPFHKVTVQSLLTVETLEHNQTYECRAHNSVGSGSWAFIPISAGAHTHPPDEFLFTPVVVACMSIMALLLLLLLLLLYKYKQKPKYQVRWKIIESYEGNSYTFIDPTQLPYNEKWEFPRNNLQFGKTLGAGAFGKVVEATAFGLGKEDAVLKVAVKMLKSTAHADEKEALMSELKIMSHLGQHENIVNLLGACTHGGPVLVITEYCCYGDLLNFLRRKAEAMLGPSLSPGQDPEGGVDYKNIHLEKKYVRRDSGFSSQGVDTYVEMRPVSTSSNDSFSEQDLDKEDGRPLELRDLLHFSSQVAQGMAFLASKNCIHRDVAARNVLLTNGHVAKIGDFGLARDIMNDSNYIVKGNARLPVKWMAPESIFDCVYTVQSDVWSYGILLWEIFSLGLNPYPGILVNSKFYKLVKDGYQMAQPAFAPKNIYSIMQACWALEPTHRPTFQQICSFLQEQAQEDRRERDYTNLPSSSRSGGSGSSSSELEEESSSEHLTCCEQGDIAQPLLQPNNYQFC

FLT3 (human) = FLT3 (human) (UniProt P36888)
MAP3K2 (human) = MAP3K2 (human) (UniProt Q9Y2U5)
INSR (human) = INSR (human) (UniProt P06213)
MAP4K5 (human) = MAP4K5 (human) (UniProt Q9Y4K4)
PNCK (human) = PNCK (human) (UniProt Q6P2M8)
PNCK (human), sequence (Q6P2M8 whole entry, looked up): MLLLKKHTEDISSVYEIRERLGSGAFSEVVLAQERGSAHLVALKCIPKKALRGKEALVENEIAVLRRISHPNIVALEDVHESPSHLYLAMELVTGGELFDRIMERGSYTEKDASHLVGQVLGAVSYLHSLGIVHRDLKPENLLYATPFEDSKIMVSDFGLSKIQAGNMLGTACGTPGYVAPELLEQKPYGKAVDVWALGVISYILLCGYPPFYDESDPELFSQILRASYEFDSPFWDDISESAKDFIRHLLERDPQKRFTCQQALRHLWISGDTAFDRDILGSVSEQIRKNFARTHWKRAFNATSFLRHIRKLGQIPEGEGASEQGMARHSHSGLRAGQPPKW

CSNK1G2 (human) = CSNK1G2 (human) (UniProt P78368)
CSNK1E (human) = CSNK1E (human) (UniProt P49674)
PRKCB2 (human) = PRKCB2 (human) (UniProt P05771)
PLK1 (human) = PLK1 (human) (UniProt P53350)
IKBKE (human) = IKBKE (human) (UniProt Q14164)
ADRBK2 (human) = ADRBK2 (human) (UniProt P35626)
TEC (human) = TEC (human) (UniProt P42680)
MAPKAPK3 (human) = MAPKAPK3 (human) (UniProt Q16644)
MAPKAPK3 (human), sequence (Q16644 whole entry, looked up): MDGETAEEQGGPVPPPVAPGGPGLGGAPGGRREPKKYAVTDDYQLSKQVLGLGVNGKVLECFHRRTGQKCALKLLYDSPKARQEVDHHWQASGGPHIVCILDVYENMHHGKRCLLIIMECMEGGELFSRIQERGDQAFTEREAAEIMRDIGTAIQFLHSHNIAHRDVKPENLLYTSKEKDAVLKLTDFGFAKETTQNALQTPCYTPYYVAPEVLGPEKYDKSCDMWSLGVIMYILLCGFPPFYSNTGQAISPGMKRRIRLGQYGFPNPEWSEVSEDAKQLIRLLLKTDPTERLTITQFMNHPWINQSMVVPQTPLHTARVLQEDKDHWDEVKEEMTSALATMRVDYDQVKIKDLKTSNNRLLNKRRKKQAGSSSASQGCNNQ

PRKCE (human) = PRKCE (human) (UniProt Q02156)
AKT1 (human) = AKT1 (human) (UniProt P31749)
AKT1 (human), sequence (P31749 whole entry, looked up): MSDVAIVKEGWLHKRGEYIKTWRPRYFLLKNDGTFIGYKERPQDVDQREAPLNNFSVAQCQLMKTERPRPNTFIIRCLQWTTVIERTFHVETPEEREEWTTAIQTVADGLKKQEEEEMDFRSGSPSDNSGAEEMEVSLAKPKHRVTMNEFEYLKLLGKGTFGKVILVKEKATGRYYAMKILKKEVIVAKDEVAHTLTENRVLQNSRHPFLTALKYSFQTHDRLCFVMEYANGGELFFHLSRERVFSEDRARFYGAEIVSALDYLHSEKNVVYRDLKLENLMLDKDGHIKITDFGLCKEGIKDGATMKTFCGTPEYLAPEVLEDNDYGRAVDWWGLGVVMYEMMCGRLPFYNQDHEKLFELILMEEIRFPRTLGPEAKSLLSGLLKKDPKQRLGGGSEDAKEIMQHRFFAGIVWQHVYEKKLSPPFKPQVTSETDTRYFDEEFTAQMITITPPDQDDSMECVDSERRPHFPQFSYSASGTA

ROCK2 (human) = ROCK2 (human) (UniProt O75116)

SMILES: COc1ccc(OC)c2c(=S)c3ccccc3[nH]c12
- residual activity (PRKD1 (human)): 99.8%
- residual activity (EPHA5 (human)): 114%
- residual activity (STK25 (human)): 96.2%
- residual activity (PDGFRA (human)): 85.6%
- residual activity (NEK3 (human)): 107%
- residual activity (ROS1 (human)): 103%
- residual activity (MAP3K8 (human)): 111%
- residual activity (MST4 (human)): 90.8%
- residual activity (DYRK3 (human)): 98.2%
- residual activity (MYLK2 (human)): 95.7%
- residual activity (KIT (human)): 78.6%
- residual activity (EPHB2 (human)): 94.9%
- residual activity (NEK1 (human)): 102%
- residual activity (MUSK (human)): 87.3%
- residual activity (EPHA8 (human)): 93.8%
- residual activity (SGK2 (human)): 96.5%
- residual activity (PTK2 (human)): 106%
- residual activity (PRKCB1 (human)): 101%
- residual activity (PAK6 (human)): 112%
- residual activity (CDC42BPA (human)): 82.7%
- residual activity (CDK5 CDK5R1 p25 (human)): 85.4%
- residual activity (GRK5 (human)): 108%
- residual activity (FER (human)): 84%
- residual activity (INSRR (human)): 88.7%
- residual activity (ULK1 (human)): 114%
- residual activity (CSF1R (human)): 93.4%
- residual activity (FLT3 (human)): 71%
- residual activity (MAP3K2 (human)): 101%
- residual activity (INSR (human)): 102%
- residual activity (MAP4K5 (human)): 95.2%
- residual activity (PNCK (human)): 97.3%
- residual activity (CSNK1G2 (human)): 103%
- residual activity (CSNK1E (human)): 90.3%
- residual activity (PRKCB2 (human)): 106%
- residual activity (PLK1 (human)): 93.6%
- residual activity (IKBKE (human)): 104%
- residual activity (ADRBK2 (human)): 86.5%
- residual activity (TEC (human)): 147%
- residual activity (MAPKAPK3 (human)): 87.7%
- residual activity (PRKCE (human)): 93.3%
- residual activity (AKT1 (human)): 89.7%
- residual activity (ROCK2 (human)): 90.4%

SMILES: CCN(CC)CCCCN1c2ccccc2Oc2ccc(Cl)cc21
- residual activity (PRKD1 (human)): 101%
- residual activity (EPHA5 (human)): 109%
- residual activity (STK25 (human)): 92.6%
- residual activity (PDGFRA (human)): 102%
- residual activity (NEK3 (human)): 103%
- residual activity (ROS1 (human)): 95.3%
- residual activity (MAP3K8 (human)): 94.7%
- residual activity (MST4 (human)): 98%
- residual activity (DYRK3 (human)): 99%
- residual activity (MYLK2 (human)): 104%
- residual activity (KIT (human)): 107%
- residual activity (EPHB2 (human)): 107%
- residual activity (NEK1 (human)): 101%
- residual activity (MUSK (human)): 103%
- residual activity (EPHA8 (human)): 102%
- residual activity (SGK2 (human)): 105%
- residual activity (PTK2 (human)): 108%
- residual activity (PRKCB1 (human)): 101%
- residual activity (PAK6 (human)): 102%
- residual activity (CDC42BPA (human)): 111%
- residual activity (CDK5 CDK5R1 p25 (human)): 91%
- residual activity (GRK5 (human)): 103%
- residual activity (FER (human)): 102%
- residual activity (INSRR (human)): 102%
- residual activity (ULK1 (human)): 99.8%
- residual activity (CSF1R (human)): 97.8%
- residual activity (FLT3 (human)): 99%
- residual activity (MAP3K2 (human)): 88.2%
- residual activity (INSR (human)): 109%
- residual activity (MAP4K5 (human)): 93.4%
- residual activity (PNCK (human)): 107%
- residual activity (CSNK1G2 (human)): 103%
- residual activity (CSNK1E (human)): 112%
- residual activity (PRKCB2 (human)): 102%
- residual activity (PLK1 (human)): 109%
- residual activity (IKBKE (human)): 102%
- residual activity (ADRBK2 (human)): 87.5%
- residual activity (TEC (human)): 157%
- residual activity (MAPKAPK3 (human)): 105%
- residual activity (PRKCE (human)): 109%
- residual activity (AKT1 (human)): 112%
- residual activity (ROCK2 (human)): 104%
